Assay results published in patent US20210228530A1, “TAXANE-LIPID-POLYSACCHARIDE DUAL CONJUGATES, PREPARATION METHODS THEREOF AND USES THEREOF” (Santolecan Pharmaceuticals LLC, priority 2018, published 2021).
Converted amounts (≈) assume the structure as drawn.

Experiments:
MCF-7 tumor cells = experiment: In vitro antitumor activity, MTT assay, MCF-7; assay type: cell-based; conditions: Homo sapiens, MCF7, 72 h treatment, conjugates in taxane molar equivalents
Procedure: (§1) In order to determine if the activity of the prepared intermediates and prepared conjugates, we evaluated their antitumor activities by using MTT assay.
(§2) All cell lines were maintained in a humidified atmosphere containing 5% CO2 at 37° C. in different media supplemented with 10% FBS, 100 U/ml penicillin, and 100 μg/ml streptomycin. MCF-7, NCI-H460 or OVCAR-3 tumor cells were seeded into a 96-well cell culture plate and incubated overnight. The 96-well culture plate was taken out from the incubator, and the conjugates or mixture of different compounds or polysaccharides were added into it. […] Three wells were set at each concentration. Blank control contained tumor cells in normal medium without any sample. After treatment for 72 h, 20 μL of 3-(4, 5-dimethylthiazole-2)-2,5-diphenyltetrazolium bromide (MTT) were added to each well and incubated for 4 hours at 37° C. […] The half-inhibitory concentration (IC50 value) of each compound or conjugate was calculated.

[1] = Enhanced solubility test for poorly water-soluble compounds; assay type: physicochemical; conditions: 1.0 mg alone in 2.0 ml distilled water, sonicated for 1 minute
[2] = system: OVCAR-3 (drug resistance) tumor cells; experiment: In vitro antitumor activity, MTT assay, OVCAR-3; assay type: cell-based; conditions: Homo sapiens, 72 h, taxane molar equivalents, molar ratio of taxane to lipid (Paclitaxel:DHA) 1:0, 1:1, 1:2, 1:4 per row
Procedure: as §1
All cell lines were maintained in a humidified atmosphere containing 5% CO2 at 37° C. in different media supplemented with 10% FBS, 100 U/ml penicillin, and 100 μg/ml streptomycin. MCF-7, NCI-H460 or OVCAR-3 tumor cells were seeded into a 96-well cell culture plate and incubated overnight. The 96-well culture plate was taken out from the incubator, and the conjugates or mixture of different compounds or polysaccharides were added into it. The concentration of each compound or conjugate were set to 500 nM, 200 nM, 100 nM, 50 nM, 25 nM, 12.5 nM, 6 nM, 3 nM and 1 nM. Three wells were set at each concentration. Blank control contained tumor cells in normal medium without any sample. After treatment for 72 h, 20 μL of 3-(4, 5-dimethylthiazole-2)-2,5-diphenyltetrazolium bromide (MTT) were added to each well and incubated for 4 hours at 37° C. After the removal of the supernatant, MTT formazan was dissolved in 150 μl dimethyl sulfoxide (DMSO) and monitored using a microplate reader at a wavelength of 570 nm. The half-inhibitory concentration (IC50 value) of each compound or conjugate was calculated.

NCI-H460 tumor cells = experiment: In vitro antitumor activity, MTT assay, NCI-H460; assay type: cell-based; conditions: Homo sapiens, 72 h treatment, conjugates in taxane molar equivalents
Procedure: as §1, §2

[3] = system: metastatic malignant melanoma cancer; conditions: patients with metastatic malignant melanoma cancer; Ann. Oncol., 2011; cited from earlier work
[4] = literature report, drugbank.ca; cited from earlier work
[5] = In vivo safety assay in xenograft nude mice: body weight and death; parameters: species or system BALB/c (nu/nu) mice; conditions: whole experiment period; 8.0 mg/kg docetaxel or equimolar dose, i.v. once a week, 4 weeks
Procedure: BALB/c (nu/nu) mice (20±2 g, 4-6 weeks old) were housed under pathogen-free conditions. Cancer cells such MCF-7 and NCI-H460 5.0×10^6, suspended in 100 μl PBS, were subcutaneously inoculated into the lower right rank of the nude mice. When the tumor size reached 100-150 mm^3, the mice were divided randomly into different groups (n=6 in each group). The control group received the solvent only. […] The mice were treated for 4 weeks. After the administration, the mice are raised normally. The tumor volume and mouse body weight were measured on every 3 days.

Structure (SMILES)	IC50 (MCF-7 tumor cells) [nM]	observation of the compound alone in water [1]	IC50 [2] [nM]	IC50 (NCI-H460 tumor cells) [nM]	final survival rates versus dacarbazine group [3]	solubility in water (literature) [4] [µg/mL]	death of nude mice [5]
CC(=O)O[C@H]1C(=O)[C@@]2(C)[C@H]([C@H](OC(=O)c3ccccc3)[C@]3(O)C[C@H](OC(=O)[C@H](O)[C@@H](NC(=O)c4ccccc4)c4ccccc4)C(C)=C1C3(C)C)[C@]1(OC(C)=O)CO[C@@H]1C[C@@H]2O [Paclitaxel, paclitaxel]	21.9 ± 1.1	undissolved powder floated over water surface was clearly observed	57.6 ± 6.3	17.9 ± 1.3	–	–	–
CC/C=C\C/C=C\C/C=C\C/C=C\C/C=C\C/C=C/CCC(=O)O[C@@H](C(=O)O[C@H]1C[C@@]2(O)[C@@H](OC(=O)c3ccccc3)C3[C@](C)(C(=O)[C@H](OC(C)=O)C(=C1C)C2(C)C)[C@@H](O)C[C@H]1OC[C@@]31OC(C)=O)[C@@H](NC(=O)c1ccccc1)c1ccccc1 (stereo partly drawn) [DHA-paclitaxel]	–	–	–	–	no significant differences in final survival rates	–	–
CO[C@H]1C(=O)[C@]2(C)[C@@H](OC)C[C@H]3OC[C@@]3(OC(C)=O)[C@H]2[C@H](OC(=O)c2ccccc2)[C@]2(O)C[C@H](OC(=O)[C@H](O)[C@@H](NC(=O)OC(C)(C)C)c3ccccc3)C(C)=C1C2(C)C [Cabazitaxel, cabazitaxel]	8.3 ± 0.5	–	–	7.1 ± 0.3	–	–	–
CC(=O)O[C@@]12CO[C@@H]1C[C@H](O)[C@@]1(C)C(=O)[C@H](O)C3=C(C)[C@@H](OC(=O)[C@H](O)[C@@H](NC(=O)OC(C)(C)C)c4ccccc4)C[C@@](O)([C@@H](OC(=O)c4ccccc4)[C@H]21)C3(C)C [Docetaxel, docetaxel]	9.5 ± 0.2	undissolved powder floated over water surface was clearly observed	–	6.7 ± 0.6	–	1.27 (≈ 1.57 µM)	no death
